Reference: paper PMC8837819, “Syrbactin-class dual constitutive- and immuno-proteasome inhibitor TIR-199 impedes myeloma-mediated bone degeneration in vivo” (Bioscience Reports, 2022)
Where two headings read alike, the source gives them in different places.

Assays:
HEK293T cells = experiment: Immunoblot of proteasome substrates and ubiquitylated proteins in HEK293T cells; type: cell-based, human
Protocol: Data were normalized to corresponding GAPDH levels. […] (D) HEK-293T cells were treated in the absence (DMSO) or presence of 0.5 μM of TIR-199 for 6 h. Cell lysates were subjected to immunoblotting with the indicated antibodies. Similar results were obtained in three independent replicates. (E) HEK-293T cells were treated in the absence (DMSO) or presence of either 0.1 μM of bortezomib (BTZ) or 0.2 μM of TIR-199 for 4 h. Cell lysates were subjected to immunoblotting with the indicated antibodies. Similar results were obtained in two independent replicates.

[1] = molecular target: T1, PSMB5-FLAG (chymotryptic-like activity, constitutive 26S proteasome) (Homo sapiens, UniProt P20618+P28074); experiment: Proteasome activity assay on immunoprecipitated WT PSMB5-FLAG (Suc-LLVY-AMC); type: biochemical; details: for proteasomal activity of WT PSMB5: Suc-LLVY-AMC, relative to DMSO, n=3
T1 construct: made in house; host or cells: HEK293 cells stably expressing PSMB5-FLAG; FLAG immunoprecipitate
Protocol: (B) Wildtype (WT) PSMB5-FLAG was immunoprecipitated from HEK293 cells stably expressing PSMB5-FLAG. […] Also refer to Supplementary Figure S1. (D) HEK-293T cells were treated in the absence (DMSO) or presence of 0.5 μM of TIR-199 for 6 h. Cell lysates were subjected to immunoblotting with the indicated antibodies. […] (E) HEK-293T cells were treated in the absence (DMSO) or presence of either 0.1 μM of bortezomib (BTZ) or 0.2 μM of TIR-199 for 4 h. Cell lysates were subjected to immunoblotting with the indicated antibodies.

[2] = test system: PSMB5 (AA/TV) bortezomib-resistant mutant; details: Suc-LLVY-AMC, relative to DMSO, n=3
[3] = test system: PSMB9-FLAG (immunoproteasome); experiment: Immunoproteasome activity assay on immunoprecipitated PSMB9-FLAG (Ac-PAL-AMC); type: biochemical, human; details: n=3; for PSMB9 activity at single concentration: 100 nM for 30 min, Ac-PAL-AMC
Text: Also refer to Supplementary Figure S2.

[4] = test system: MM.1S myeloma-mediated bone degeneration in NSG mice; experiment: MM.1S/NSG systemic myeloma xenograft, μCT of femurs; type: in vivo, mouse; details: 5 mg/kg i.p. daily for 4 days
A549 cells = experiment: Cytotoxicity assay (MTS), A549; type: cell-based; details: 48 h
Protocol: MTS absorbance was measured in a Tecan plate reader.

[5] = test system: endogenous proteasome in MM.1S cells; experiment: Chymotryptic-like proteasome activity in lysates of treated MM.1S cells; type: cell-based, human; details: 0.5 μM TIR-199 for 0.5 h vs DMSO, Suc-LLVY-AMC, n=3
[6] = test system: panel of 50 protein kinases; experiment: Kinase specificity profiling, panel of 50 protein kinases (33P-ATP); type: biochemical; details: 1 μM TIR-199 (20-fold PSMB5 IC50); triplicate reactions
Protocol: TIR-199 specificity profiling assays were carried out at The International Centre for Protein Kinase Profiling (http://www.kinase-screen.mrc.ac.uk/). TIR-199 kinase specificity was determined against a panel of 50 protein kinases as described previously. The assay mixes and ^33P-γATP were added by Multidrop 384 (Thermo). Results are presented as a percentage of kinase activity in DMSO control reactions. Protein kinases were assayed in vitro with 1 μM final concentration of TIR-199 and the results are presented as an average of triplicate reactions ± SD or in the form of comparative histograms.
Kinase profiling of TIR-199 at 1 μM was carried out against the panel of 50 kinases at the
International Centre for Protein Kinase Profiling (http://www.kinase-screen.mrc.ac.uk/).
(1 picture or pasted object on this page, not shown here)

[7] = test system: proteasome in primary CD138+ myeloma cells; experiment: Chymotryptic-like proteasome activity in primary CD138+ myeloma cells of patients; type: cell-based, human; details: CD138+ cells of two refractory patients; 500 nM for 0.5 h; Suc-LLVY-AMC; n=3
Text: CD138^+ myeloma cells were purified from the bone marrow aspirates which were obtained from HIPAA compliant de-identified consenting patients in accordance with Institutional Review Board protocol: 181027 approved on 9 October 2019 at UCSD. The bone marrow aspirates were kindly provided by Dr. Caitlin Costello, Moores Cancer Center, UCSD. CD138^+ primary myeloma cells were purified from fresh bone marrow aspirates of multiple myeloma patients using EasySep™ Human Whole Blood and Bone Marrow CD138 Positive Selection Kit II (StemCell Technologies) following manufacturer’s instructions. Viable cells were collected for further analyses.
Figure 1 TIR-199 is a syrbactin-based constitutive proteasome inhibitor (A) Chemical structure of syrbactin derivative TIR-199. (B) Wildtype (WT) PSMB5-FLAG was immunoprecipitated from HEK293 cells stably expressing PSMB5-FLAG. […] (C) Proteasome activity in lysates from MM.1S and primary CD138^+ myeloma cells purified from two patients treated with DMSO or 0.5 μM TIR-199 for 0.5 h was measured with Suc-LLVY-AMC. *P<0.05; **P<0.01; ***P<0.001 (compared with control treated, two-tailed paired Student’s t test, mean ± SD from n=3 replicates). Also refer to Supplementary Figure S1. (D) HEK-293T cells were treated in the absence (DMSO) or presence of 0.5 μM of TIR-199 for 6 h. Cell lysates were subjected to immunoblotting with the indicated antibodies. […]

[8] = molecular target: PSMB8-FLAG (immunoproteasome) (Homo sapiens, UniProt P20618+P28062); experiment: Immunoproteasome activity assay on immunoprecipitated PSMB8-FLAG (Ac-ANW-AMC); details: 100 nM for 30 min; Ac-ANW-AMC; n=3
Protocol: (§1) Immunoproteasome activity assays were carried out as stated previously [32]. Briefly, HEK293 cells transiently overexpressing FLAG-tagged PSMB9 or PSMB8 were treated with IFNγ (100 ng/ml; 48 h) to induce expression of immunoproteasome. […] Immunoproteasomes were affinity purified using FLAG agarose from 2 mg of cell lysate. Peptidase activities of purified immunoproteasomes were assayed using 100 μM fluorogenic peptide substrates Ac-ANW-AMC for PSMB8 and Ac-PAL-AMC for PSMB9 (Boston Biochem) for 30 min.
(§2) (B) PSMB8 or PSMB9 was immunoprecipitated for 48 h in 100 ng/ml IFNγ-stimulated HEK293 cells transiently overexpressing either PSMB8-FLAG or PSMB9-FLAG. […] Fluorescence signal upon release of AMC was measured in a Tecan plate reader. […] Results are means ± S.D. for n=3 replicates.

[9] = molecular target: PSMB8-FLAG (immunoproteasome) (Homo sapiens, UniProt P28062); experiment: as above
Protocol: as §1, §2

[10] = vs vehicle, distal and proximal femur combined, n=6 femurs

| SMILES | accumulation of ubiquitylated proteins (immunoblot) (HEK293T cells; 100 nM bortezomib for 4 h) | proteasomal activity of WT PSMB5 ([1]; 10 nM bortezomib) | proteasomal activity of AA/TV PSMB5 ([2]; 10 nM bortezomib) | PSMB9 activity at single concentration [3] | myeloma-mediated bone degeneration ([4]; femurs 7 days after dosing) | % bone volume over total volume (% BV/TV), femur μCT [4, 10] | trabecular number (Tb.N), femur μCT [4, 10] | trabecular separation (Tb.Sp), femur μCT [4, 10] | sensitivity to TIR-199 within lung cancer panel (A549 cells) | chymotryptic-like endogenous proteasome activity in cell lysates [5] | inhibition of 50 kinases in vitro [6] | accumulation of ubiquitylated proteins (immunoblot) (HEK293T cells; 200 nM TIR-199 for 4 h) | proteasome substrates p62, IKBα and p21 protein levels (immunoblot) (HEK293T cells; 250 nM TIR-199 for 6 h (legend: 0.5 μM)) | chymotryptic-like proteasome activity compared with DMSO [7] | caspase-like activity of PSMB9 ([3]; up to 250 nM TIR-199, 100 μM Ac-PAL-AMC) | PSMB8 activity at single concentration [8] | IC50 [9] [nM] | IC50 [1] [nM] | proteasomal activity of WT PSMB5 ([1]; 100 nM TIR-199) | proteasomal activity of AA/TV PSMB5 ([2]; 100 nM TIR-199) |
| --- | --- | --- | --- | --- | --- | --- | --- | --- | --- | --- | --- | --- | --- | --- | --- | --- | --- | --- | --- | --- |
| CC(C)C[C@H](NC(=O)[C@H](Cc1ccccc1)NC(=O)c1cnccn1)B(O)O [bortezomib, reference compound] | accumulation of ubiquitylated proteins | dramatic reduction in proteasomal activity | significant resistance | – | – | – | – | – | – | – | – | – | – | – | – | – | – | – | – | – |
| COc1ccc(C[C@H](NC(=O)[C@H](C)NC(=O)CN2CCOCC2)C(=O)N[C@@H](Cc2ccccc2)C(=O)C2(C)CO2)cc1 (stereo in doubt) [ONX-0914, reference compound] | – | – | – | did not inhibit | – | – | – | – | – | – | – | – | – | – | – | – | – | – | – | – |
| CCCCCCCCCCCCNC(=O)N[C@H](C(=O)N[C@H]1/C=C/CCNC(=O)/C=C/[C@H](C)NC1=O)C(C)C [TIR-199] | – | – | – | did not inhibit | slowed down the myeloma-mediated bone degeneration process | not significant | higher trabecular number | significantly lower trabecular separation | relatively more resistant | inhibition of chymotryptic-like endogenous proteasome activity | does not inhibit | accumulation of ubiquitylated proteins | protein levels increased | decreased significantly | largely more resistant | inhibited PSMB8 potently | ~100 | 50 | equally sensitive | equally sensitive |
